Experimental findings from US20200190062A1, “HETEROCYCLIC COMPOUND AND PHARMACEUTICAL COMPOSITION COMPRISING SAME” (BEYONDBIO INC., priority 2015, published 2020) are described below.

Counter-ions that a name gives are not always drawn. Like-named read-outs stand apart in the source and are kept apart here.

One data set addresses T1, CDK1/cyclinB (Homo sapiens, UniProt P06493).
T1 construct: purchased Merck Millipore
Put plainly: Inhibition of CDK enzyme activity (ADP-Glo kinase assay). The conditions noted are these: 10 uM ATP, histone H1 substrate. In kind it is biochemical. As for the experimental part: (§1) Test compounds were prepared by dissolving the compounds obtained in the above Examples in dimethylsulfoxide (DMSO) at a concentration of 10 mM. The test compounds were diluted to 200 nM, 50 nM, […], 3.13 nM, 0.78 nM, and 0.2 nM and used in an enzyme reaction.
(§2) CDK enzyme reaction was conducted in a buffer containing 50 mM Tris-HCl (pH 7.5), 10 mM MgCl2, 1 mM EGTA, 1 mM EDTA, and 2 mM DTT. CDK1/cyclinB, CDK2/cylcinE, CDK5/p25, and CDK6/cyclinD3 enzymes commercially available from Merck Millipore were used for CDK1, CDK2, CDK5, and CDK6 enzymes, respectively, and CDK4/cyclinD1 enzyme commercially available from Signalchem (US) was used for CDK4. For CDK1, a reaction proceeded by adding 10 nM CDK1/cyclinB and 0.125 mg/ml histone H1 (Merck Millipore) substrate to the buffer and then adding 10 uM ATP thereto. For CDK2, a reaction was proceeded by adding 10 nM CDK2/cyclinE and 0.125 mg/ml histone H1 substrate to the buffer and then adding 10 uM ATP thereto. For CDK5, a reaction was proceeded by adding 10 nM CDK5/p25 and 0.125 mg/ml histone H1 substrate to the buffer and then adding 10 uM ATP thereto. For CDK4, a reaction was proceeded by adding 20 nM CDK4/cyclinD1 and 0.125 mg/ml Rb protein (Merck Millipore) to the buffer and then adding 10 uM ATP thereto. For CDK6, a reaction was proceeded by adding 50 nM CDK6/cyclinD3 and 0.125 mg/ml histone H1 substrate to the buffer and then adding 10 uM ATP thereto. Each enzyme reaction was incubated at 30° C. for 60 min. Then, the amount of ADP produced was measured using Victor X4 instrument (Perkin Elmer) after generating luminescence using ADP-Glo kinase assay kit (Promega, US). An inhibition effect on each enzyme was represented as a percentage of the luminescence value in the presence of the test compounds relative to the luminescence value without the test compounds. IC50 (nM) is the concentration of the compound to inhibit 50% of the enzyme activity.
A general note: ADP-Glo turns the ADP formed in a reaction into a luminescent signal.

For the next data set, the target named is T2, CDK2/cyclinE (Homo sapiens, UniProt P24941).
T2 construct: purchased Merck Millipore
The data set is described as above. Type of data set: biochemical. The conditions noted are these: 10 uM ATP, histone H1 substrate. Here is the method: as §1, §2

For the next data set, the target named is T3, CDK4/cyclinD1 (Homo sapiens, UniProt P11802).
T3 construct: purchased Signalchem (US)
T3 sequence (P11802 whole entry): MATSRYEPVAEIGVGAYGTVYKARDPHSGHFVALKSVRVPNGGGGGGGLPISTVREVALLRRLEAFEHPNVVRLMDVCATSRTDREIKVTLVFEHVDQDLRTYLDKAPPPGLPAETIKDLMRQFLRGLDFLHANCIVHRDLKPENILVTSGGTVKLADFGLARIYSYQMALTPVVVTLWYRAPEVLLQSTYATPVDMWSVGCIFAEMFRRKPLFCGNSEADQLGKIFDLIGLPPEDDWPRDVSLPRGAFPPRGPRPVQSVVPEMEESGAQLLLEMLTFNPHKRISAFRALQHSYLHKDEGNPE
T3 sequence (P24385 whole entry partner): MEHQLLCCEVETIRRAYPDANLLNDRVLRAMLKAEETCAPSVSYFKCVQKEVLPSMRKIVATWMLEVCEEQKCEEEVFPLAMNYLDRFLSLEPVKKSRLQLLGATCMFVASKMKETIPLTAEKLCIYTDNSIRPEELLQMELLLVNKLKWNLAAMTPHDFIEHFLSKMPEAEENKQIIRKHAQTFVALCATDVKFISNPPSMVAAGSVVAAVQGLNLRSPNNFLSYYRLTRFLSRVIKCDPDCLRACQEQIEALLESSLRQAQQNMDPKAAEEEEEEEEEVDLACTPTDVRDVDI
The description is as above. In kind it is biochemical. The conditions noted are these: 10 uM ATP, Rb protein substrate; read-out: IC50 CDK4/cyclinD. Here is the method: as §1, §2

A further data set deals with T4, CDK5/p25 (Homo sapiens, UniProt Q00535).
T4 construct: purchased Merck Millipore
T4 sequence (Q00535 whole entry): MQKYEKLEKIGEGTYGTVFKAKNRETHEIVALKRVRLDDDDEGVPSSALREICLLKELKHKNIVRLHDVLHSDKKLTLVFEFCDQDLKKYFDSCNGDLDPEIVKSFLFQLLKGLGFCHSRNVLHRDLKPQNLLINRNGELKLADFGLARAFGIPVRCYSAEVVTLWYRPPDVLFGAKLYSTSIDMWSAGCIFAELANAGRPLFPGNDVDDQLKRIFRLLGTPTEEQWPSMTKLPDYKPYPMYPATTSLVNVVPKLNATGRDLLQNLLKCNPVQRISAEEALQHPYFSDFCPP
T4 sequence (Q15078 99-307 partner limits assumed): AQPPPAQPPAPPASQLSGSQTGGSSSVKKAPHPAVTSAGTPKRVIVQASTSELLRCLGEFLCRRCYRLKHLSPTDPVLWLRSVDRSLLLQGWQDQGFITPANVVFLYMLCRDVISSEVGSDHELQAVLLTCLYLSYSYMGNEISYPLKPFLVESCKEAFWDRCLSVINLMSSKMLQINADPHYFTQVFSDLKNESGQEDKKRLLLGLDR
The data set is described as above. Type of data set: biochemical. The conditions noted are these: 10 uM ATP, histone H1 substrate. Here is the method: as §1, §2

In the next data set the target is T5, CDK6/cyclinD3 (Homo sapiens, UniProt Q00534).
T5 construct: purchased Merck Millipore
T5 sequence (Q00534 whole entry): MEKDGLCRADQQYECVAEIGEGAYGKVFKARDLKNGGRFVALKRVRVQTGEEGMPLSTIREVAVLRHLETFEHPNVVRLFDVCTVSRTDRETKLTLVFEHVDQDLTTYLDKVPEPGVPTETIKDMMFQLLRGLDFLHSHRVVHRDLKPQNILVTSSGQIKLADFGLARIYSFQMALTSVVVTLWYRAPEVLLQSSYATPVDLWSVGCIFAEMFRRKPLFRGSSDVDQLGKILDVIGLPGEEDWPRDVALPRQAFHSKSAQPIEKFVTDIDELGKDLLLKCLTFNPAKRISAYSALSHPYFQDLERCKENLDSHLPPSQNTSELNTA
T5 sequence (P30281 whole entry partner): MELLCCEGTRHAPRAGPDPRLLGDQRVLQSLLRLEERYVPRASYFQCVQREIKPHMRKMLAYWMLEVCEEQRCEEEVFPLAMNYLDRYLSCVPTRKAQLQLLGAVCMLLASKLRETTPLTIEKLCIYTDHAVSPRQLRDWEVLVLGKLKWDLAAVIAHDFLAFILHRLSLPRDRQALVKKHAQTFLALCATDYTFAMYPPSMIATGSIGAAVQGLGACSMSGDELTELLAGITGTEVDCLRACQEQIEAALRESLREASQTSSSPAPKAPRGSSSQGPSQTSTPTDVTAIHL
The data set is described as above. The note with it: 10 uM ATP, histone H1 substrate; read-out: IC50 CDK6/cyclinD. In kind it is biochemical. Here is the method: as §1, §2

The subject of a further data set is HCT116. Put plainly: Inhibition of cancer cell proliferation (MTT). In kind it is cell-based, human.
A further data set concerns SH-SY5Y. Nature of the data set: Inhibition of cancer cell proliferation (MTT). In kind it is cell-based, human. A digest of the protocol:
(§3)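 Plate 3000 cells/well and let them adhere for 16 h. Add compound (0.004, 0.013, 0.04, 0.12, 0.37, 1.1, 3.3, 10 uM; 0.08% DMSO) and culture for 72 h. Add MTT for 2 h, dissolve formazan in DMSO, read at 535 nm, and fit GI50.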

For a further data set, the system named is SK-N-SH. Put plainly: Inhibition of cancer cell proliferation (MTT). In kind it is cell-based, human. In a few lines: as §3
The next data set has as its system U-87MG. Put plainly: Inhibition of cancer cell proliferation (MTT). In kind it is cell-based, human. A digest of the protocol:
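Absorbance at 535 nm of DMSO-dissolved formazan (2 h MTT) gives viability versus 0.08% DMSO-treated cells, and GI50 is derived from eight concentrations between 0.004 and 10 uM. Exposure lasts 72 h at 37 °C, 5% CO2, using 3000 cells/well in 10% FBS medium ([…] for NCI-H23, otherwise DMEM).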

The next data set concerns T98G. Put plainly: Inhibition of cancer cell proliferation (MTT). The note with it: Homo sapiens, T98G, 72 h. In kind it is cell-based, human. A digest of the protocol:
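Growth inhibition over 72 h was measured in attached cultures (3000 per well) with 0.08% DMSO as the control. Viable cells were detected with a 2 h MTT step, and the concentration giving 50% inhibition was taken as GI50.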

Data set [1] is described as follows: Blood brain barrier permeation. In kind it is in vivo, ICR mice. The conditions noted are these: mouse, 10 mg/kg, oral once 10 mg/kg. Here is the method: Using 9-week-old male ICR mice, the compounds obtained in the above Examples were orally administered once at a dose of 10 mg/kg or 30 mg/kg, and after 1 hr and 4 hrs, the concentrations of the compounds in the blood and brain of the mice were determined. 3 ICR mice were assigned in each group. Plasma was separated from the blood obtained after sacrificing the mice at each time, the brain of the mice was extracted, and the […] was washed with PBS, followed by pulverizing the brain tissue. The blood was placed in a test tube containing heparin to prevent coagulation and then was centrifuged at 12,000 rpm at 4° C. for 3 min to give a supernatant from which plasma was collected. Brain tissue was weighed, and the brain was pulverized using Dounce's homogenizer after adding 3 times as much volume of PBS as the brain weight. Each of the obtained analytical samples was quantitatively analyzed using a tandem liquid chromatography-mass spectrometer (Tandem LC/MS/MS, API3000 & Agilent 1100 series). Brain permeability of a compound is expressed as a value obtained by dividing the concentration of the compound in the brain by the concentration of the compound in the plasma (B/P ratio), and when the B/P ratio is greater than 1, it means that the concentration in the brain is higher than the one in the blood.

T1 sequence (P06493 whole entry): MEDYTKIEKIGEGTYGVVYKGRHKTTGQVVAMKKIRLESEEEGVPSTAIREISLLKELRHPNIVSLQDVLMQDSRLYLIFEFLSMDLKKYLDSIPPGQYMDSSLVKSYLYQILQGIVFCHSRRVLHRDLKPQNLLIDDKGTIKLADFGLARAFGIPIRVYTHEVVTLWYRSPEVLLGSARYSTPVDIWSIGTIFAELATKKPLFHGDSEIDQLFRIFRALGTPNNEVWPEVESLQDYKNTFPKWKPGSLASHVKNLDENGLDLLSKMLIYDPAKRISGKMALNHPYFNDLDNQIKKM
T1 sequence (P14635 whole entry partner): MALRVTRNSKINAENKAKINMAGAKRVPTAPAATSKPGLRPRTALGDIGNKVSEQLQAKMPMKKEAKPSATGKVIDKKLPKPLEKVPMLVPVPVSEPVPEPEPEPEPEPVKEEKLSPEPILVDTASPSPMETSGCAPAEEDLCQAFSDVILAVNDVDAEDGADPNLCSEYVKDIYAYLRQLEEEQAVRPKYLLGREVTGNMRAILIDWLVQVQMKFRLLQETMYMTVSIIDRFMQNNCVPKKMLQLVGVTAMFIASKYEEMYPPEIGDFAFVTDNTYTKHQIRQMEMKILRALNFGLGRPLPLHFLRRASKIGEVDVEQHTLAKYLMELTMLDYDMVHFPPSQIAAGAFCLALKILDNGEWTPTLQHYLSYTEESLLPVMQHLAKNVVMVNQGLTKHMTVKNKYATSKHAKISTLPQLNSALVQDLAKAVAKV

On to `Nc1nccc(-c2nc(-c3cccc(N)c3F)ccc2O)n1` [Example 18, 6-(3-amino-2-fluorophenyl)-2-(2-aminopyrimidin-4-yl)pyridin-3-ol], for which the IC50 was 26.8 nM against CDK1/cyclinB; 10.7 nM at CDK2/cyclinE; over 200 nM at CDK4/cyclinD1; 6.1 nM on CDK5/p25; 181 nM at CDK6/cyclinD3. Besides, the GI50 amounted to 340 nM in the data set with HCT116 (Homo sapiens, HCT-116, 72 h); 200 nM in the data set on SH-SY5Y (Homo sapiens, SH-SY5Y, 72 h); 780 nM with SK-N-SH (Homo sapiens, SK-N-SH, 72 h); 5860 nM in the data set on U-87MG (Homo sapiens, U-87 MG, 72 h).
As for `Nc1nccc(-c2nc(-c3ccnc(N)c3F)ccc2O)n1` [Example 68, 2′-amino-6-(2-aminopyrimidin-4-yl)-3′-fluoro-[2,4′-bipyridin]-5-oloxalate], the GI50 came to 10 nM in the data set on HCT116 (72 hrs), 10 nM in the data set on SH-SY5Y (72 hrs), 30 nM with SK-N-SH (72 hrs) and 100 nM with U-87MG (72 hrs).
Turning to `Nc1nccc(-c2nc(-c3cccc(O)c3)ccc2O)n1` [Example 13, 2-(2-aminopyrimidin-4-yl)-6-(3-hydroxyphenyl)pyridin-3-ol], the GI50 in the data set with HCT116 (Homo sapiens, HCT-116, 72 h) was 6970 nM; with SH-SY5Y (Homo sapiens, SH-SY5Y, 72 h) it was 680 nM; in the data set on SK-N-SH (Homo sapiens, SK-N-SH, 72 h) it was 7220 nM; in the data set on U-87MG (Homo sapiens, U-87 MG, 72 h) it was 4600 nM.
For the molecule `Nc1nccc(-c2nc(-c3ccc(O)cc3)ccc2O)n1` [Example 9, 2-(2-aminopyrimidin-4-yl)-6-(4-hydroxyphenyl)pyridin-3-ol], the IC50 at CDK1/cyclinB was 11.6 nM; at CDK2/cyclinE, 6.4 nM; on CDK4/cyclinD1 it was 287 nM; on CDK5/p25, 2.3 nM; at CDK6/cyclinD3 it was 44.8 nM. Moreover, the GI50 came to 200 nM in the data set with HCT116 (Homo sapiens, HCT-116, 72 h); 90 nM in the data set with SH-SY5Y (Homo sapiens, SH-SY5Y, 72 h); 200 nM in the data set with SK-N-SH (Homo sapiens, SK-N-SH, 72 h); 630 nM in the data set with U-87MG (Homo sapiens, U-87 MG, 72 h).
Take `Nc1nccc(-c2nc(-c3ccc(O)cc3F)ccc2O)n1` [Example 70, 2-(2-aminopyrimidin-4-yl)-6-(2-fluoro-4-hydroxyphenyl)pyridin-3-ol 2hydrochloride]: the GI50 in the data set with HCT116 (72 hrs) is 530 nM; with SH-SY5Y (72 hrs), 160 nM; with SK-N-SH (72 hrs), 580 nM; in the data set on U-87MG (72 hrs), 1650 nM.
As to `Nc1nccc(-c2nc(-c3ccc(O)cc3F)ccc2O)n1` [Example 17, 2-(2-aminopyrimidin-4-yl)-6-(2-fluoro-4-hydroxyphenyl)pyridin-3-ol], the IC50 against CDK1/cyclinB is 30.8 nM; against CDK2/cyclinE, 9.4 nM; on CDK4/cyclinD1 it was over 200 nM; on CDK5/p25, 3.3 nM; at CDK6/cyclinD3, 65.3 nM. Further, the GI50 in the data set with HCT116 (Homo sapiens, HCT-116, 72 h) was found to be 610 nM; in the data set with SH-SY5Y (Homo sapiens, SH-SY5Y, 72 h), 290 nM; in the data set with SK-N-SH (Homo sapiens, SK-N-SH, 72 h) it was 840 nM; in the data set on U-87MG (Homo sapiens, U-87 MG, 72 h), 1700 nM.
In the case of `Nc1cccc(-c2ccc(O)c(-c3ccnc(N)n3)n2)c1` [Example 16, 6-(3-aminophenyl)-2-(2-aminopyrimidin-4-yl)pyridin-3-ol], the GI50 was determined as 1330 nM in the data set with HCT116 (Homo sapiens, HCT-116, 72 h); 570 nM with SH-SY5Y (Homo sapiens, SH-SY5Y, 72 h); 2910 nM in the data set with SK-N-SH (Homo sapiens, SK-N-SH, 72 h); 3600 nM with U-87MG (Homo sapiens, U-87 MG, 72 h).
Regarding `Nc1nccc(-c2nc(-c3ccc(O)c(F)c3)ccc2O)n1` [Example 19, 2-(2-aminopyrimidin-4-yl)-6-(3-fluoro-4-hydroxyphenyl)pyridin-3-ol], the IC50 against CDK1/cyclinB was 19.6 nM; against CDK2/cyclinE it was 14.6 nM; on CDK4/cyclinD1, over 200 nM; against CDK5/p25, 6.4 nM; on CDK6/cyclinD3, 129 nM. The 50% growth inhibitory concentration (GI50) was 460 nM in the data set with HCT116 (Homo sapiens, HCT-116, 72 h); 120 nM with SH-SY5Y (Homo sapiens, SH-SY5Y, 72 h); 210 nM with SK-N-SH (Homo sapiens, SK-N-SH, 72 h); 2610 nM in the data set with T98G; 440 nM in the data set on U-87MG (Homo sapiens, U-87 MG, 72 h).
For `Nc1nccc(-c2nc(-c3ccc(O)c(F)c3F)ccc2O)n1` [Example 20, 2-(2-aminopyrimidin-4-yl)-6-(2,3-difluoro-4-hydroxyphenyl)pyridin-3-ol], the GI50 was determined as 520 nM in the data set with HCT116 (Homo sapiens, HCT-116, 72 h); 190 nM in the data set on SH-SY5Y (Homo sapiens, SH-SY5Y, 72 h); 390 nM in the data set on SK-N-SH (Homo sapiens, SK-N-SH, 72 h); 4310 nM with T98G; 1180 nM in the data set with U-87MG (Homo sapiens, U-87 MG, 72 h).
Turning to `Nc1nccc(-c2nc(-c3ccnc(N)c3O)ccc2O)n1` [Example 21, 2′-amino-6-(2-aminopyrimidin-4-yl)-[2,4′-bipyridin]-3′,5-diol], the IC50 at CDK1/cyclinB stood at 6.1 nM; against CDK2/cyclinE, 4.5 nM; at CDK4/cyclinD1 it was 403 nM; against CDK5/p25, 1.5 nM; at CDK6/cyclinD3, 73.6 nM. The GI50 in the data set with HCT116 (Homo sapiens, HCT-116, 72 h) turned out to be 140 nM; in the data set with SH-SY5Y (Homo sapiens, SH-SY5Y, 72 h), 110 nM; with SK-N-SH (Homo sapiens, SK-N-SH, 72 h), 310 nM; with U-87MG (Homo sapiens, U-87 MG, 72 h), 890 nM.
As for `Nc1nccc(-c2nc(-c3ccnc(N)c3F)ccc2O)n1` [Example 67, 2′-amino-6-(2-aminopyrimidin-4-yl)-3′-fluoro-[2,4′-bipyridin]-5-ol acetate], the concentration for 50% growth inhibition (GI50) was 10 nM in the data set with HCT116 (72 hrs), 10 nM in the data set with SH-SY5Y (72 hrs), 20 nM in the data set with SK-N-SH (72 hrs) and 90 nM in the data set with U-87MG (72 hrs). The concentration at 1 h in [1] (male, ICR, brain, po, 1 hr, read-out: Concentration in the brain) amounted to 55.1 ng/g; in data set [1] (male, ICR, plasma, po, 1 hr, read-out: Concentration in the plasma), 24.9 ng/mL. Also, the Kp at 1 h in [1] (male, ICR, brain/plasma, po, 1 hr, read-out: B/P ratio) is 2.21. The Kp at 4 h in data set [1] (male, ICR, brain/plasma, po, 4 hrs, read-out: B/P ratio) was 3.97. Moreover, the “Concentration in the brain” value in data set [1] (4 hrs) is on record as 15.5 ng/g. Moreover, the “Concentration in the plasma” value in data set [1] (4 hrs) was 3.9 ng/mL.

As a reminder, the GI50 is the concentration giving 50% growth inhibition. A lower GI50 goes with more potent growth inhibition.
